The values below come from article PMC6240685, “Strong Inhibitory Effect, Low Cytotoxicity and High Plasma Stability of Steroidal Inhibitors of N-Methyl-D-Aspartate Receptors With C-3 Amide Structural Motif” (Frontiers in Pharmacology, 2018).

For orientation: IC50 means the concentration needed to halve the response being measured. Low values mean greater potency, high ones weaker potency.

Molecules are shown by their SMILES.

The experiment concerns the target T1, GluN1/GluN2D receptors (Rattus norvegicus, UniProt P35439+Q62645).
T1 construct: expressed in transfected cells; host or cells: HEK293
Nature of the experiment: Patch-clamp inhibition of GluN1/GluN2D receptors in transfected HEK293 cells. Type of experiment: cell-based. Particulars: 1 mM glutamate and 10 μM glycine. The protocol:
FIGURE 7 Concentration–response properties of compound 6 on GluN1/GluN2A-D receptors. (A) Examples of traces obtained from HEK293 cells transfected with cDNAs encoding GluN1/GluN2A, GluN1/GluN2B, GluN1/GluN2C, and GluN1/GluN2D receptors. Agonists (1 mM glutamate and 10 μM glycine) were applied alone and simultaneously with compound 6 (10 μM) to evaluate the inhibitory effect of compound 6 on NMDAR mediated currents (duration of glutamate and steroid application is indicated by filled and open bars, respectively). (B) Concentration–response curves for the compound 6 effect at GluN1/GluN2A-D receptors. Data points are averaged values of normalized responses from at least four HEK293 cells. Error bars represent SD.
Electrophysiological experiments were performed on HEK293 cells transfected with plasmids encoding rat GluN1-1a/GluN2A-D and GFP genes as described previously, ([Petrovic et al., 2005]; [Cais et al., 2008]; [Korinek et al., 2010]) or on primary hippocampal neurons prepared from P0–P1 rats, plated on collagen/poly-D-lysine-coated glass coverslips at a density of ∼50,000 cells/cm^2, and grown in Neurobasal A medium with B27 Supplement (Gibco). Agonist-induced responses were voltage-clamped at a holding potential of −60 mV. […] Agonist-induced responses were low-pass filtered at 2 kHz, digitally sampled at 5 kHz, and analyzed with pClamp software version 10.5 (Molecular Devices). […]
(In patch-clamp work, channel activity is measured electrically.)

T1 sequence (Q62645 28-1323, other chains not shown): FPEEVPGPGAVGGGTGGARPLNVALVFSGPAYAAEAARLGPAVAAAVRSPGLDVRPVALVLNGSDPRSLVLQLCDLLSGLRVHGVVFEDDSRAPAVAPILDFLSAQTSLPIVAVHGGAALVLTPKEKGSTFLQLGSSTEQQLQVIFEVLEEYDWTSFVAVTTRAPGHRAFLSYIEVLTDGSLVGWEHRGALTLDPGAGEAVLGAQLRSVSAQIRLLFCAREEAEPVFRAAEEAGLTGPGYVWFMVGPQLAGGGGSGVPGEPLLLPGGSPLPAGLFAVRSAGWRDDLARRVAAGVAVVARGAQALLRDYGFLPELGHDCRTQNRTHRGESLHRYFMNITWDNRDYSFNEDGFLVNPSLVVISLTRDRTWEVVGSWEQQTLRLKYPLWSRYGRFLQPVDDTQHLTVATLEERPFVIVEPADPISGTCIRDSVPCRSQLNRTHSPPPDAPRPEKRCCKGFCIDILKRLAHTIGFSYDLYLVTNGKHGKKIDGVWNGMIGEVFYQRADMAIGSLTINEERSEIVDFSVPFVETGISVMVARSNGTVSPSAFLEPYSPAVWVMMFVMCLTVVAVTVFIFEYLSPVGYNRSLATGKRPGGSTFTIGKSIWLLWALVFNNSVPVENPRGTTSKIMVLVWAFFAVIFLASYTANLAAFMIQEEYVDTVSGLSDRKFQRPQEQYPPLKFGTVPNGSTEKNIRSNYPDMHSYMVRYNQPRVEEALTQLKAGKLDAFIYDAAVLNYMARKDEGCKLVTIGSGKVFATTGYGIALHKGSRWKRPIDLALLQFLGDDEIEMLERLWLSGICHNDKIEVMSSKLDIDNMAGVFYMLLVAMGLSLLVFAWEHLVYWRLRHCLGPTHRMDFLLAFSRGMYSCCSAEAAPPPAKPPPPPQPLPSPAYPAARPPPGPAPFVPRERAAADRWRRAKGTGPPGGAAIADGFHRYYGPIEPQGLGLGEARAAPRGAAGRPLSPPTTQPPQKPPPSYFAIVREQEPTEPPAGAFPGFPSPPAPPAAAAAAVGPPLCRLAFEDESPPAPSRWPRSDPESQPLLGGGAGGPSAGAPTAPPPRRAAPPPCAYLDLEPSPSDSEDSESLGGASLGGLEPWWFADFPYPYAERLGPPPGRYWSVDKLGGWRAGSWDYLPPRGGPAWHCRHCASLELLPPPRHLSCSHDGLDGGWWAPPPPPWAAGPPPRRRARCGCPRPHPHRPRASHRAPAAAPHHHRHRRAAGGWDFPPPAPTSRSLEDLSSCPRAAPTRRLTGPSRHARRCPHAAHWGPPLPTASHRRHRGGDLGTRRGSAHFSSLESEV

Take `C[C@@]12CCC[C@H]1[C@@H]1CC[C@@H]3C[C@H](NC(=O)[C@@H](N)CC(=O)O)CC[C@]3(C)[C@H]1CC2` [Compound 6, (S)-3-amino-4-(((3R,5R,8S,9S,10S,13S,14S)-10,13-dimethylhexadecahydro-1H-cyclopenta[a]phenanthren-3-yl)amino)-4-oxobutanoic acid]: the “h ± SD (apparent Hill coefficient)” value is reported as 1.6 ± 0.3. This compound gave an IC50 (concentration-response) of 8.4 ± 1 µM.
